Reference: patent publication US20250223306A1, “TEAD INHIBITORS AND METHODS OF USE” (Sporos BioDiscovery, Inc., priority 2022, published 2025)

Legend:
NCI-H226 cells [1] = test: Proliferation and cell viability, CellTiter-Glo 2.0 (CTG) assay; assay type: cell-based; conditions: 144 hrs
Procedure: (§1) Cell proliferation of a TEAD dependent NF2-null mesothelioma cell line, NCI-H226, and a TEAD-non-dependent mesothelioma cell line, NCI-H28 was assayed using two different protocols: • a) CellTiter-Glo 2.0 (Promega #G9243). The effect of the TEAD inhibitors disclosed herein on cell proliferation was determined in TEAD1-genetically dependent cell line NCI-H226 (responder cell line) and TEAD-independent cell lines (NCI-H23, HEK293T), as non-responder, negative control. Cells were seeded in 96-well plates (Thermo Scientific #167008) in growth media (RPMI-1640, Gibco #61870-010) for NCI-H226 and NCI-H23 or DMEM (Gibco #31966-021, HEK293T) with 10% Heat Inactivated Fetal Bovine Serum (Gibco 10500-064) at 800 (NCI-H226 and HEK-293T) or 2000 (NCI-H23) cells per well at 37° C., 5% CO2, humidified incubator; 24 hours later, fresh growth media containing test compound or DMSO vehicle was added and incubated with the cells for 144 hrs. TEAD inhibitor stocks were made at a 1000× fold excess in DMSO, and a dose response test compound dose range of 10,000 to 0.1 nM was used. Each treatment was carried out in triplicate. After 144 hrs of treatment, relative cell viability numbers were determined using the CellTiter-Glo 2.0 assay following the manufacturer's instructions. Test plates and CellTiter-Glo 2.0 reagent were allowed to equilibrate to room temperature. CellTiter-Glo 2.0 reagent was added at 1:1 reagent to media ratio to the 96-well cell plates, plates were placed on a plate shaker for 2 minutes and then incubated at room temperature for a further 10 minutes to allow complete cell lysis to occur. The mix was then transferred to white, 96-well luminometer assay plates (Greiner Bio One #655075). Luminescence was quantified using a CLARIOStar Plus multi-mode plate reader (BMG Labtech) in luminescence detection mode with the recommended settings (ultra-Glo pre-set: emission 545-50 nm with autofocus and enhanced dynamic range on). Relative cell density was expressed as a function of inhibitor concentration, with respect to DMSO-only control wells. Data where plotted using GraphPad Prism and IC50 values for the biological effect were calculated using the EC50 non-linear fit function using a sigmoidal, 4-parameter logistic, least squares fit with no constraints. • b) Cell Titer One (Promega, #G3582). The effect of the TEAD inhibitors disclosed herein on cell proliferation was also determined using the Promega Substrate Cell Titer Aqueous One Solution Reagent. The TEAD inhibitors were evaluated for the effects on cell proliferation responder (H226) and non-responder negative control cancer cell lines (CAMA1, H28), as well as non-transformed normal human cells (HUVEC, NHDF). Dissociated cells were resuspend in media (depending on cell line, either in DMEM, RPMI, or EMEM all with 10% FBS, with gentamicin as an antibiotic). Cells were seeded at 100 μL/well at 750 cells per well in 96-well plates and allowed to settle and attach. After an incubation of 24 hrs (37° C., 5% CO2, humidified incubator), 100 μL of test compound-containing media was added. A dilution series of 2000× concentrated stock of test compounds was prepared in DMSO, for final concentrations from 0.1 to 10,000 nM. After addition of test compound-containing media, cells were incubated for 6 days at 37° C., 5% CO2, humidified incubators). To measure cell density, 20 μL of Promega Substrate Cell Titer 96 Aqueous One Solution Reagent (Promega, #G3582) to each well was added according to the manufacturer's instructions. Plates were incubated at 37° C. for usually 3-8 hrs, to reach in the control cells (without compound) an OD of 1.5 at 490 nm. The OD was measured using Vmax [Molecular Devices] spectrophotometer plate reader. Media only-wells were used as background controls and cell densities normalized to DMSO vehicle control. ECs were taken as the concentration achieving 50% of maximal growth inhibition.

NCI-H23 cells = test: as above; assay type: cell-based; conditions: 144 hrs
Procedure: as §1

NCI-H226 cells [2] = test: Proliferation, Cell Titer One assay; assay type: cell-based; conditions: 6 days
Procedure: as §1

TEAD1 = TEAD1 (Homo sapiens, UniProt P28347); test: TEAD thermal shift assay (TSA); assay type: binding
TEAD1, sequence (P28347 whole entry): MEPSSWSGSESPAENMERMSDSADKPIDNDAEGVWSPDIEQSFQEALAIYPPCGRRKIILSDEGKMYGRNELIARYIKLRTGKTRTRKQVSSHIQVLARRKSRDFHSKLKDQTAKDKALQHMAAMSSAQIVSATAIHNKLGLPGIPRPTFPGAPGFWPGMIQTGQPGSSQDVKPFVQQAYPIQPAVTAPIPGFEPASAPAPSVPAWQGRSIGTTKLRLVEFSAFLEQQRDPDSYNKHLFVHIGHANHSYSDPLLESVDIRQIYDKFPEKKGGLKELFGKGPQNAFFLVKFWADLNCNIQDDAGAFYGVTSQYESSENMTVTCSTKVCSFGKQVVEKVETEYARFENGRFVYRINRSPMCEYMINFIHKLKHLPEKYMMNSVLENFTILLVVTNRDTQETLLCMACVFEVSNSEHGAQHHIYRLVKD
Excerpt: (§2) Thermal shift assay (TSA) is a biophysical method to evaluate stability of proteins with change in temperature. The assay measures thermal denaturation temperature in varying conditions such as different drug concentration. For this example, fluorogenic dye was used that bind to unfolded proteins. SYPRO Orange binds non-specifically to hydrophobic surfaces, and water strongly quenches its fluorescence. When the protein unfolds, the exposed hydrophobic surfaces bind the dye, resulting in an increase in fluorescence by excluding water. Detergent micelles also bind the dye and increase background noise dramatically. Binding of small molecules to proteins leads to a stabilization against to thermal denaturation with the degree of thermal stabilization proportional to the strength of binding.
(§3) The study described in this example investigated the change in melting temperature (ΔTm) of TEAD isoforms 1˜4 when treated with TEAD inhibitors. Compound 1-1-a known strong TEAD1 and weak TEAD2 inhibitor; as well as Compound 1-4-a pan-TEAD inhibitor were used as controls.
(§4) Tris-HCL was dissolved in 5 mL of Cell culture grade water and allowed to dissolve completely. The pH was adjusted to 8 using NaOH. Additional assay buffer components were added in the order listed above. The buffer was mixed slowly.
(§5) Assay buffer was prepared according to the procedures outlined above and dispensed into test wells. Spyro orange was added to a concentration of 5× in the assay buffer, followed by test compound stock solution which was added to a concentration of 10 μM or 30 μM in the assay buffer.
(§6) The melt cycle was performed in Bio-RAD PCR instrument from 20-95° C. with ramp rate of 1° C./min.

TEAD2 = TEAD2 (Homo sapiens, UniProt Q15562); test: TEAD thermal shift assay (TSA); assay type: binding
TEAD2, sequence (Q15562 whole entry): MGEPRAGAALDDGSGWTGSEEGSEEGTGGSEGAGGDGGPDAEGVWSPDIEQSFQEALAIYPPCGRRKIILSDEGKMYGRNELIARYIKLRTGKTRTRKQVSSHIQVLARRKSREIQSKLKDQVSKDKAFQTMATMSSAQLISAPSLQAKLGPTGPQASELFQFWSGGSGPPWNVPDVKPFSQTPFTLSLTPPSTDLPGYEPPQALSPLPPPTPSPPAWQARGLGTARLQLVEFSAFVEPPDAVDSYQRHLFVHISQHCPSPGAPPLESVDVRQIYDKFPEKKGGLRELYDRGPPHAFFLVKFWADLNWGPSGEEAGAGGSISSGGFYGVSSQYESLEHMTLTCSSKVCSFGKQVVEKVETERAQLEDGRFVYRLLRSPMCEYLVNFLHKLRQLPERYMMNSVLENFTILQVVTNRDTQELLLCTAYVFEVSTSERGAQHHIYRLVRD
Excerpt: as §2, §3, §4, §5, §6

TEAD3 = TEAD3 (Homo sapiens, UniProt Q99594); test: TEAD thermal shift assay (TSA); assay type: binding
TEAD3, sequence (Q99594 whole entry): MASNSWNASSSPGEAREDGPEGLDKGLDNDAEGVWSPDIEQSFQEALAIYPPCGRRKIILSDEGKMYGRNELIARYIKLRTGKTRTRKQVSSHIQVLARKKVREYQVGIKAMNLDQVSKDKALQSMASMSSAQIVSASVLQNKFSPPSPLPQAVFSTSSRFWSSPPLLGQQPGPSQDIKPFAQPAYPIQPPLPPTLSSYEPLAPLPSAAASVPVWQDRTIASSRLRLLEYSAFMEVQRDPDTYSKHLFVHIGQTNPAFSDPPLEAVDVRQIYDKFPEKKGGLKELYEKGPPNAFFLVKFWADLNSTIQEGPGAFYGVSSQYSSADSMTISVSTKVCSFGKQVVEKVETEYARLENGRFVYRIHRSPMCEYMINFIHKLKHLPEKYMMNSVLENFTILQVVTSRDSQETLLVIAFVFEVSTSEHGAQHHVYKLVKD
Excerpt: as §2, §3, §4, §5, §6

TEAD4 = TEAD4 (Homo sapiens, UniProt Q15561); test: TEAD thermal shift assay (TSA); assay type: binding
TEAD4, sequence (Q15561 whole entry): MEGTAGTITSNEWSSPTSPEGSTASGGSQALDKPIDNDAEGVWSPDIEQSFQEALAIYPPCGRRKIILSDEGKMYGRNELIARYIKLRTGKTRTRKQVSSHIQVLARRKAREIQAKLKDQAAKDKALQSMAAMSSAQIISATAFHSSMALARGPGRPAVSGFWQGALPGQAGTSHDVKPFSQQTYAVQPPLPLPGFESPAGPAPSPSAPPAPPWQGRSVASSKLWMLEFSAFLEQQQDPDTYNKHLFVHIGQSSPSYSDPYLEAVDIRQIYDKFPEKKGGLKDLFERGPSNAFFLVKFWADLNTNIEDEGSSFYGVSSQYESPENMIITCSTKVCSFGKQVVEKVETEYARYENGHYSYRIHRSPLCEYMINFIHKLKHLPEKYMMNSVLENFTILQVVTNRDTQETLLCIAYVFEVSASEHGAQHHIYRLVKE
Excerpt: as §2, §3, §4, §5, §6

[3] = Homo sapiens, NCI-H226, 144 h, H226-responder cell line
[4] = Homo sapiens, NCI-H23, H23-non-responder cell line
[5] = ratio of protein to compound 1:1
[6] = ratio of protein to compound 1:3

SMILES | IC50 (NCI-H226 cells [1]; [3]) [nM] | IC50 (NCI-H226 cells [2]; Homo sapiens, NCI-H226, 144 h) [nM] | also measured
O=C(NCc1ncco1)c1cnc2c(C3=CCC(C(F)(F)F)CC3)cccc2c1 (single isomer, unassigned) [Compound 12, N-(oxazol-2-ylmethyl)-8-(4-(trifluoromethyl)cyclohex-1-en-1-yl)quinoline-3-carboxamide] | < 200 | 200 to 1000 | IC50 (NCI-H23 cells; [4]): > 1000 nM
O=C(NCc1ncco1)c1cnc2c(C3=CCC(C(F)(F)F)CC3)cccc2c1 (single isomer, unassigned) [Compound 13, N-(oxazol-2-ylmethyl)-8-(4-(trifluoromethyl)cyclohex-1-en-1-yl)quinoline-3-carboxamide] | – | – | IC50 (NCI-H226 cells [1]; H226-responder cell line): < 200 nM; IC50 (NCI-H23 cells; H23-non-responder cell line): > 1000 nM; IC50 (NCI-H226 cells [2]): < 200 nM
C[C@H](NC(=O)c1ccc2c(-c3ccc(C(F)(F)F)cc3)cccc2c1)c1cccc(N)n1 [Compound 1-4, reference compound] | – | – | TEAD1 ΔTm (TEAD1; [5]): 10 °C; TEAD1 ΔTm (TEAD1; [6]): 12 °C; thermal shift / binding across TEAD isoforms, in words (TEAD1; summary of Table 14 over TEAD1-4): thermal shifts for all four TEAD isoforms; TEAD2 ΔTm (TEAD2; [5]): 5 °C; TEAD2 ΔTm (TEAD2; [6]): 7 °C; TEAD3 ΔTm (TEAD3; [5]): 5 °C; TEAD3 ΔTm (TEAD3; [6]): 9 °C; TEAD4 ΔTm (TEAD4; [5]): 5 °C; TEAD4 ΔTm (TEAD4; [6]): 9 °C
O=C(NCc1ccccn1)c1cnc2c(C3=CCC(C(F)(F)F)CC3)cccc2c1 (stereo not shown) [Compound 5, N-(pyridin-2-ylmethyl)-8-(4-(trifluoromethyl)cyclohex-1-en-1-yl)quinoline-3-carboxamide] | < 200 | < 200 | IC50 (NCI-H23 cells; [4]): > 1000 nM
CC(C)NC(=O)c1cnc2c(C3=CCC(F)(F)CC3)cccc2c1 [Compound 26, 8-(4,4-difluorocyclohex-1-en-1-yl)-N-isopropylquinoline-3-carboxamide] | – | < 200 | IC50 (NCI-H226 cells [1]; Homo sapiens, NCI-H226, H226-responder cell line): < 200 nM
C[C@H](NC(=O)c1cnc2c(C3=CCC(F)(F)CC3)cccc2c1)c1ccccn1 [Compound 27, (S)-8-(4,4-difluorocyclohex-1-en-1-yl)-N-(1-(pyridin-2-yl)ethyl)quinoline-3-carboxamide] | < 200 | < 200 | –
O=C(NCc1ncco1)c1cnc2c(C3=CCC(F)(F)CC3)cccc2c1 [Compound 29, 8-(4,4-difluorocyclohex-1-en-1-yl)-N-(oxazol-2-ylmethyl)quinoline-3-carboxamide] | 200 to 1000 | > 1000 | –
CC(C)NC(=O)c1cnc2c(C3=CCC(C)(C)CC3)cccc2c1 [Compound 30, 8-(4,4-dimethylcyclohex-1-en-1-yl)-N-isopropylquinoline-3-carboxamide] | < 200 | < 200 | –
C[C@H](NC(=O)c1cnc2c(C3=CCC(C)(C)CC3)cccc2c1)c1ccccn1 [Compound 31, (S)-8-(4,4-dimethylcyclohex-1-en-1-yl)-N-(1-(pyridin-2-yl)ethyl)quinoline-3-carboxamide] | < 200 | > 1000 | –
C[C@H](NC(=O)c1cnc2c(C3=CCCCC3)cccc2c1)c1ccccn1 [Compound 35, (S)-8-(cyclohex-1-en-1-yl)-N-(1-(pyridin-2-yl)ethyl)quinoline-3-carboxamide] | – | 200 to 1000 | –
C[C@@H](CO)NC(=O)c1cnc2c(C3=CCCCC3)cccc2c1 [Compound 36, (S)-8-(cyclohex-1-en-1-yl)-N-(1-hydroxypropan-2-yl)quinoline-3-carboxamide] | – | > 1000 | –
O=C(NCc1ncco1)c1cnc2c(C3=CCCCC3)cccc2c1 [Compound 37, 8-(cyclohex-1-en-1-yl)-N-(oxazol-2-ylmethyl)quinoline-3-carboxamide] | – | > 1000 | –
CNC(=O)c1cnc2c(C3=CCC(C(F)(F)F)CC3)cccc2c1 (stereo not shown) [Compound 38, N-methyl-8-(4-(trifluoromethyl)cyclohex-1-en-1-yl)quinoline-3-carboxamide] | < 200 | 200 to 1000 | –
O=C(NCCO)c1cnc2c(C3=CCC(C(F)(F)F)CC3)cccc2c1 (stereo not shown) [Compound 39, N-(2-hydroxyethyl)-8-(4-(trifluoromethyl)cyclohex-1-en-1-yl)quinoline-3-carboxamide] | < 200 | < 200 | –
COCCNC(=O)c1cnc2c(C3=CCC(C(F)(F)F)CC3)cccc2c1 (stereo not shown) [Compound 40, N-(2-methoxyethyl)-8-(4-(trifluoromethyl)cyclohex-1-en-1-yl)quinoline-3-carboxamide] | < 200 | 200 to 1000 | –
